# Source: patent US20220296583A1, “COMPOSITIONS AND METHODS FOR TREATMENT OF OVARIAN AND BREAST CANCER” (Board of Regents, The University of Texas System, priority 2021, published 2022)
# Assays:
# [1] = test system: MDA-MB-231 xenograft; assay: MDA-MB-231 mammary fat pad xenograft, Compound B and olaparib; type: in vivo, mice; details: 50 mg/kg, oral, 5 weeks
# Method: Forty female nu/nu mice were injected with 0.8×10^6 MDA-MB-231 cells into their fourth mammary fat pads. […] Tumors were measured every week as noted above (SKOv3 xenograft models).
# [2] = test system: OVCAR8, SKOv3, OC316, OVCAR3, ES2, A2780, MDA2774, and IGROV1 cells; assay: Short term cell proliferation (CellTiter-Glo), eight ovarian cancer cell lines; type: cell-based, human; details: single concentration of Compound B 0.75-1.25 μM; p<0.01
# Method: Cells were seeded in 6 replicates in black-walled and clear-bottomed 96-well plates and incubated overnight. […] The CellTiter-Glo luminescent cell viability assay (Promega) was used to evaluate the effect of treatment on cancer growth. This experiment was performed several times to optimize the concentration. […] GraphPad Prism 8 was used to generate growth curves and calculated IC50. CalcuSyn was used to evaluate additive or synergistic interactions, a combination Index (CI value).
# [3] = test system: SKOv3 xenograft; assay: SKOv3 subcutaneous xenograft, Compound B, carboplatin and paclitaxel; type: in vivo, mice; details: SKOv3 s.c., 6 weeks
# Method: After treatment as indicated in (A) for three weeks, mice were weighed, and intraperitoneal nodules were excised and weighed. […] Mice were treated with single, double, or triple agents for 6 weeks. Tumor was measured once a week until the tumor burden in control group reached maximum allowance. The graphs indicate the mean±standard deviation. Statistical significance is indicated by *p<0.05, **p<0.01, and ***p<0.0001.
# Six-week-old female athymic nu/nu mice were purchased from Envigo. Experiments were reviewed and all procedures were performed according to an animal protocol approved by the Institutional Animal Care and Use Committee of UT MD Anderson Cancer Center. […] Carboplatin was administrated i.p. once a week at a dose of 25 mg/kg. […] Carboplatin was treated at a dose of 30 mg/kg once a week for six weeks. […] At end of six weeks, the mice were sacrificed by CO2. The mice were dissected immediately after death and the tumors were collected and weighed.
# OVCAR8 cells were injected intraperitoneally (ip) into nu/nu mice. Treatment started 7 days post injection. […] At the conclusion of the treatment, the mice were sacrificed, and the tumor was dissected and weighed (FIG. 23A). […] The tumor volume was measured at indicated time points (FIG. 23D).
compound,measurement,setting,value
"COc1c(F)cc(F)cc1-c1c[nH]c2ncc(-c3cnn(C4CCN(S(C)(=O)=O)CC4)c3)cc12 [Compound B, 3-(3,5-difluoro-2-methoxyphenyl)-5-(1-(1-(methylsulfonyl)piperidin-4-yl)-1H-pyrazol-4-yl)-1H-pyrrolo[2,3-b]pyridine]",tumor burden / tumor volume,[1],remained unchanged
same,carboplatin dose response curve when Compound B was added,[2],shifted to the left in seven of eight ovarian cancer cell lines
same,tumor growth (tumor volume),[3]; Compound B 40 mg/kg,significantly inhibited tumor growth
same,effect when added to carboplatin plus paclitaxel,[3]; p<0.01,further enhanced the combination treatment of carboplatin plus paclitaxel
